# From US6821735B1, “Protein involved in abscisic acid signalling” (Plant BioScience Limited, priority 1997, dated 2004)
# “Also recorded” adds a separate entry of the source. Read-outs that look alike come from different tables or passages of the source.
# B1: SYR: syntaxin-related protein of N. tabacum, 300 amino acids, SEQ ID NO:2 (protein, listed as Nicotiana tabacum)
# chain: MNDLFSGSFSRFRADDQSDSHAIEMGDITGGVNLDKFFEDVEAIKDELKGLEKIYSQLQSSHEKSKTLHNAKAVKDLRSNMDNDVSMALKKAKFIKVRLEALDRSNAANRSLPGCGPGSSSDRTRTSVVNGLRKKLQESMNQFNELRQKMASEYRETVQRRYYTVTGENPDEAVLDTLISTGQSETFLQKAIQEQGRGQVMDTVMEIQERHEAVKELERNLKELHQVFLDMAVLVESQGAQLDDIESQVNRANSFVRGGAQQLQVARKHQKNTRKWTCFAIILLLIIILVVVLSIQPWKK
# B2: Sp2: truncated Nt-Syr protein, amino acids 1-279 of SEQ ID NO:2, N-His-tagged (protein, listed as Nicotiana tabacum)
# chain: MNDLFSGSFSRFRADDQSDSHAIEMGDITGGVNLDKFFEDVEAIKDELKGLEKIYSQLQSSHEKSKTLHNAKAVKDLRSNMDNDVSMALKKAKFIKVRLEALDRSNAANRSLPGCGPGSSSDRTRTSVVNGLRKKLQESMNQFNELRQKMASEYRETVQRRYYTVTGENPDEAVLDTLISTGQSETFLQKAIQEQGRGQVMDTVMEIQERHEAVKELERNLKELHQVFLDMAVLVESQGAQLDDIESQVNRANSFVRGGAQQLQVARKHQKNTRKWTCF
# modifications: N-terminal His tag
# Legend:
# [1] = tested on: Xenopus Ca^2+-dependent Cl^− channels; test: ABA response of Xenopus oocytes injected with N. tabacum poly(A)+ RNA, two-electrode voltage clamp; type: cell-based, Xenopus laevis
# [2] = tested on: anion current of guard cells; type: cell-based, N. benthamiana
# [3] = tested on: inward-rectifying K^+ channels of guard cells; type: cell-based, N. benthamiana
# [4] = tested on: outward-rectifying K^+ channels of guard cells; test: Guard cell voltage clamp: ABA response of the outward-rectifying K^+ current (IK,out); type: cell-based, Nicotiana
# [5] = tested on: inward-rectifying K^+ currents of guard cells; type: cell-based, V. faba; conditions: after 300 s
# [6] = tested on: inward-rectifying K^+ channels of guard cells; conditions: stated as normal; cited from earlier work
# [7] = cited from earlier work
# [8] = tested on: SYR transcript; test: Northern analysis of SYR expression in leaves of treated plants
# [9] = tested on: oocyte endogenous voltage-dependent K^+ channels; test: Voltage clamp of oocytes expressing SYR: current characterization and channel inhibitors; type: cell-based, Xenopus laevis; design: highest maximum value of outward-rectifying current: unit not given here; conditions: for reduction of the current in SYR expressing oocytes: toxin in Ringer at Table 3 concentration (TEA 30 mM, niflumic acid 1 mM)
# [10] = tested on: current endogenous to the oocytes; test: Uninjected oocytes in 25 mM K^+: effect of channel inhibitors; conditions: 25 mM K^+ in the bath
# [11] = tested on: H440 yeast strain; test: Complementation of yeast strain H440 (SSO1 and SSO2 deleted) on galactose deficient medium; conditions: H440(SYR) on galactose deficient medium
# [12] = Rabbit antisera raised against SYR peptides, tested by Western blot; type: in vivo; conditions: bleeds after injection
# Procedure: Both, the purchased (SP1) and the purified (SP2) peptides were injected, each into two rabbits at the UKC animal facilities (University of Kent, Canterbury). Blood sera were taken after four weeks and the rabbits were injected a second time, After a second bleed two to three weeks later, the rabbits were injected a third time and killed while collecting blood from the heart two weeks later. SDS—PAGE and Western Blotting
# Prior to hybridization with an antibody, the membrane was blocked with 1×TBS (0.15 M NaCl, 3 mM KCl, 25 mM Tris pH 7.4) and 5% Marvel (milk powder) for 1 h. Antibody hybridization occurred in the same buffer (1×TBS, 5% Marvel) plus 0.1% Tween and 0.1% azide overnight with a rabbit generated antibody with an estimated concentration of 1 ng/μl. The antibody solution was then poured off and stored in the fridge until needed again. The membrane was washed three times with 1×TBS and 0.1% Tween solution. […]
molecule,measurement,setting,value
"CC1=CC(=O)CC(C)(C)[C@@]1(O)/C=C/C(C)=C\C(=O)O [ABA, abscisic acid]",time for complete decay of the ABA-stimulated current,"[1]; 20 μM ABA, mRNA injected oocyte",≤ 5 min
same,response to a second ABA application,[1]; 2 of the 3 ABA responsive cells,"In neither case, a second response was detected"
same,increase of steady-state current evoked by ABA,"[1]; at +60 mV, mRNA injected oocyte",> 3 μA
same,number of cells showing the ABA response,[1]; of a total of 5 mRNA injected cells tested,3 cells
same,maximum amplitude of outward-rectifying Cl^− current in response to ABA,[1]; oocytes injected with N. tabacum poly(A)+ RNA,3.1 μA
same,response of water injected oocytes,"[1]; water injected oocytes, n=8",did not respond
same,effect of ABA on instantaneous anion current of a control cell,[2],four-fold increase
same,stimulation of the Cl^− current amplitude,[2],3 fold
same,"ABA induced increase of instantaneous anion current, mean, normalized to before ABA",[2]; n=3,3.5 fold
same,inhibition of inward K^+ current in response to ABA,[3],about 40%
same,inward-rectifier current in ABA,[3],24 % of the control
same,mean IK.in ABA normalized for IK.in before ABA,[3]; n=5,46 % of the original current
same,stimulation of the outward-rectifier current,"[4]; 20 M ABA, 10 mM K+ outside",~2 fold
same,"inhibition of IK,in by ABA",[5],~80%
same,inactivation of the inward-rectifying K+ channel current normally caused by ABA,[6],40-60%
same,pKa,[7],4.8
same,SYR transcript level in leaves,"[8]; plants treated by spraying, ABA 20 μM, IAA 30 min",increased; also recorded: transient induction
same,time of highest amount of SYR transcript after beginning of treatment,"[8]; second experiment, total RNA",30 min
[Ba+2] [Ba^2+],"effect on the current in SYR expressing oocytes, in words",[9],conversion of the instantaneous component into the time-dependent component
same,reversibility of the toxin effect,[9],Full recovery
same,"effect on the current of uninjected oocytes, in words",[10],a time-dependent one arose
"CC[N+](CC)(CC)CC [TEA, tetraethyl ammonium]",reversibility of the toxin effect,[9]; after wash-out,reversible
same,reduction of the current in SYR expressing oocytes,[9],50%
same,"effect on the current of uninjected oocytes, in words",[10],invisible
O=C(O)c1cccnc1Nc1cccc(C(F)(F)F)c1 [niflumic acid],reversibility of the toxin effect,[9]; after wash-out,fully recovered
same,reduction of the current in SYR expressing oocytes,[9],~100%
same,"effect on the current of uninjected oocytes, in words",[10],abolished
CC(=O)[O-].[K+] [potassium acetate],induction of outward Cl^− currents by weak acid control,"[1]; 20 μM substituted for ABA, mRNA injected oocytes",no response was observed
ω-conotoxin,"effect on the current in SYR expressing oocytes, in words",[9],no effect was detected
B1,half time of increase in outward-rectifying current after impalement,"[9]; 50 ng cRNA injected, +60 mV",20 min
same,highest maximum value of outward-rectifying current,"[9]; 50 ng cRNA injected, +60 mV",3
same,reversal potential of the outward-rectifying current,[9]; [K^+]o 25 mM,around −35 mV
same,suppression of the SSO1/SSO2 mutation,[11],could not suppress this mutation
B2,ABA sensitivity of inward-rectifying K+ current after Sp2 loading,[3],complete loss of sensitivity to ABA
same,ABA sensitivity of outward-rectifying K+ current after Sp2 loading,"[4]; microelectrodes containing 20 or 100 µM Sp2, 20 µM ABA",complete loss of sensitivity to ABA
same,recognition of the peptide by rabbit blood sera,[12],did cross-react with the peptide
